Assay results: US10081632B2, “Substituted tetrahydropyrido[3′,2′:4,5]pyrrolo[1,2-α]pyrazine-2-carboxamides as RSK inhibitors” (Phoenix Molecular Designs, priority 2016, dated 2018)
Marks after values point to notes of the source that are not given here.

Columns and labels:
[1] = test system: MDA-MB-231 cells; test: Immuno-oncology gene expression (HLA-DRA, CIITA, CD274 mRNA); assay type: cell-based, Human; details: Compound 16 2 or 4 uM, Compound 18 1, 2, or 4 uM
Source text: (§1) A key feature of cancer is low immunogenicity. This can occur by several mechanisms that allow the cells to escape immune recognition. […] HLA-DRA is a member of MHC-II genes and CIITA is the master regulator of MHC II transcription. Thus it was surprising that CIITA, which would be expected to regulate MHC II gene expression, was not altered by RSK inhibition. […] HLA-DRA is important for immune recognition while PD-L1 is involved in immune checkpoints.

[2] = test system: JIMT-1 cells; test: as above; assay type: cell-based, Human
Source text: as §1

[3] = target: RSK2 (Homo sapiens (Human), UniProt P51812); test: Radioisotope kinase assay (SignalChem), RSK2; assay type: biochemical; details: 33P-ATP, 30° C., 15 minutes
Sequence of RSK2 (P51812 whole entry): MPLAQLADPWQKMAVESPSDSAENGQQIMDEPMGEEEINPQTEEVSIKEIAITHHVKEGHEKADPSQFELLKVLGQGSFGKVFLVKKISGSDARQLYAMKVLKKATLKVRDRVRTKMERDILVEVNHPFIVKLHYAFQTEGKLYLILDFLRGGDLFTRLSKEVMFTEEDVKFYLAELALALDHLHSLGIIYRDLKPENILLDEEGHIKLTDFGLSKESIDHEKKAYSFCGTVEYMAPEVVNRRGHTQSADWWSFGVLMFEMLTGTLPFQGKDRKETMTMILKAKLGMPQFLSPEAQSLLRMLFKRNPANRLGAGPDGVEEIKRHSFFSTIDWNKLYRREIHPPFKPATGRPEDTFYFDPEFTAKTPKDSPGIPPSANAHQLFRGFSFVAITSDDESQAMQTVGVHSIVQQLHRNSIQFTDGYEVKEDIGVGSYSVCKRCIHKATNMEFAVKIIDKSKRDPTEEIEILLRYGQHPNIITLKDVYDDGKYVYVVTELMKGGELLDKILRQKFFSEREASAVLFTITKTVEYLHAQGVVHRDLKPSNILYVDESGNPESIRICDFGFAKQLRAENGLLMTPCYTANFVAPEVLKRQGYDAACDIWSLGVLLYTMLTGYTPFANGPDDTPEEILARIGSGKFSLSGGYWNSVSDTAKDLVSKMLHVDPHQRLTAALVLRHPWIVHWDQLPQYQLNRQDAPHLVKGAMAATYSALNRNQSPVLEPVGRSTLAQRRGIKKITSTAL
Procedure: The assay conditions for the RSK2 kinase target were optimized to yield acceptable enzymatic activity. In addition, the assays were optimized to give high signal-to-noise ratio.
Radioisotope assays (SignalChem) were performed for the evaluation of the kinase target profiling and all assays were performed in a designated radioactive working area. The kinase targets were RSK1, RSK2, RSK3, RSK4 and MK2.
The assay was initiated by the addition of ^33P-ATP and the reaction mixture incubated at 30° C. for 15 minutes. After the incubation period, the assay was terminated by spotting 10 μL of the reaction mixture onto Multiscreen phosphocellulose P81 plate. The Multiscreen phosphocellulose P81 plate was washed 3 times for approximately 15 minutes each in a 1% phosphoric acid solution. The radioactivity on the P81 plate was counted in the presence of scintillation fluid in a Trilux scintillation counter.
Blank controls were set up for each target kinase which included all the assay components except the addition of the appropriate substrate (which was replaced with equal volume of assay dilution buffer). The corrected activity for each target kinase was determined by removing the blank control value.

[4] = test system: MDA-MB-468 cells; test: Monolayer growth inhibition, crystal violet assay; assay type: cell-based; details: Homo sapiens, MDA-MB-468, MDA-MB-468 (TNBC), 5 days, single dose on day 1
Source text: (§2) In all instances a single dose was given on day 1 of the experiment. […] Complete (100%) growth suppression was achievable with several of the compounds in multiple different cell lines.

[5] = test system: HCC1937 cells; test: Monolayer growth inhibition, crystal violet assay; assay type: cell-based; details: Homo sapiens, HCC1937, HCC1937 (TNBC, BRCA Mutant), 5 days, single dose on day 1
Source text: as §2

[6] = test system: T47D cells; test: Monolayer growth inhibition, crystal violet assay; assay type: cell-based; details: Homo sapiens, T47D, T47D (ER/PR), 5 days, single dose on day 1
Source text: as §2

[7] = test system: JIMT-1 cells; test: Monolayer growth inhibition, crystal violet assay; assay type: cell-based; details: Homo sapiens, JIMT-1, JIMT-1 (HER2), 5 days, single dose on day 1
Source text: as §2

[8] = test system: MDA-MB-231 cells; test: Soft agar growth inhibition assay; assay type: cell-based; details: Homo sapiens, MDA-MB-231; growth in soft agar (SA); read-out: MDA-MB-231 IC50 (SA)
[9] = test system: HCC1143 cells; test: Monolayer growth inhibition, crystal violet assay; assay type: cell-based; details: Homo sapiens, HCC1143, HCC1143 (TNBC), 5 days, single dose on day 1
Source text: (§3) In all instances a single dose was given on day 1 of the experiment.

[10] = test system: 4T1 cells; test: Monolayer growth inhibition, crystal violet assay; assay type: cell-based; details: Mus musculus, 4T1, 4T1 (TNBC), 5 days, single dose on day 1
Source text: as §3

[11] = test system: SUM149 cells; test: Monolayer growth inhibition, crystal violet assay; assay type: cell-based; details: Homo sapiens, SUM149, SUM149 (TNBC, BRCA Mutant), 5 days, single dose on day 1
Source text: as §3

[12] = test system: phosphorylated Y-box binding protein-1 (YB-1) at serine 102 (P-YB-1S102); test: Immunoblotting of cell signalling, loss of P-YB-1 in MDA-MB-231 cells
Procedure: Following desired experimental conditions, breast cancer cell lines grown and treated in 6 well plates or 100 mm culture dishes (Grenier Bio-One) were placed on ice and the supernatant from each well was removed and the cells were washed in cold PBS. Following removal of PBS, cells were exposed to radioimmunoprecipitation assay (RIPA) buffer (50 mM Tris-HCl (pH 8), 150 mM NaCl, 1% NP-40, 0.5% sodium deoxycholate, 0.1% SDS; Fisher Scientific) supplemented with 1% phosphatase inhibitor (Fisher Scientific) and 1% protease inhibitor (Fisher Scientific) for 10 minutes. Samples were transferred to eppendorf tubes, vortexed and then centrifuged at 14 000 rpm for 10 minutes. Supernatants were collected as whole cell lysates.
To begin, the protein content of the lysates was measured using the Bicinchoninic Acid (BCA) Protein Assay Kit (Pierce), which included a protein standard curve generated with bovine serum albumin. Appropriate volumes of samples and loading buffer (50 mM Tris-HCl (pH 6.8), 2% SDS, 10% glycerol, 1% j-mercaptoethanol, 12.5 mM EDTA, 0.02% bromophenol blue) were mixed, ensuring that equal amounts of protein were loaded. For the majority of experiments in this study, 30 μg of protein per well was loaded. Samples were then resolved on SDS-PAGE (polyacrylamide gel electrophoresis) using various percentages of acrylamide gels (8%-12%), depending on the proteins of interest. SDS-PAGE was run in SDS running buffer (25 mM Tris, 192 mM glycine, 0.1% SDS) and then transferred to nitrocellulose membranes (Bio-Rad) in transfer buffer (48 mM Tris, 39 mM glycine, 20% (v/v) methanol) at 100 volts for 90 minutes at room temperature. Immunoblots were then blocked in 5% skim milk in tris-buffered saline with 0.1% Tween-20 (TBS-T; 50 mM Tris-HCl, pH 7.5, 150 mM NaCl, 0.1% (v/v) Tween-20 (Fisher Scientific)) for 1 to 2 hours. Immunoblots were then incubated with selected primary antibodies diluted in TBS-T with 0.1% gelatin (Bio-Rad) and 0.05% sodium azide (Alfa Aesar) overnight. Following washes with TBT-T 4 times for 8 to 10 minutes, immunoblots were incubated with appropriate secondary antibodies conjugated to horseradish peroxidise (Cell Signalling Technology) diluted in TBS-T plus 5% skim milk at a ratio of 1:5000 for 2 hours at room temperature. After an additional round of washes in TBS-T, immunoblots were exposed to combined enhanced chemiluminescence (ECL) reagents (Fisher Scientific) for 1 minute and developed using ChemiDoc MP Imaging System (Bio-Rad). For certain immunoblots, bands of proteins of interest were scanned and band intensity ratios were determined by densitometric analysis (ImageJ). […] Total YB-1 was used as a loading control (1:5000 Abcam). […] To assess whether cells are actively undergoing cell death, the activity of poly ADP ribose polymerase (PARP) (1:1000 CST) was also measured using the immunoblotting method.

[13] = test system: 4T1 cells; test: Monolayer growth inhibition, Alamar blue assay; assay type: cell-based; details: Mus musculus, 4T1, 4T1 (TNBC), 5 days, single dose on day 1
Source text: as §3

[14] = test system: PC3 cells; test: Monolayer growth inhibition, Alamar blue assay; assay type: cell-based; details: Homo sapiens, PC-3; PC3 (Prostate), 5 days, single dose on day 1
Source text: as §3

[15] = test system: HCC1937 cells; test: Monolayer growth inhibition, Alamar blue assay; assay type: cell-based; details: Homo sapiens, HCC1937, HCC1937 (TNBC, BRCA Mutant), 5 days, single dose on day 1
Source text: as §3

[16] = test system: JIMT-1 cells; test: Monolayer growth inhibition, Alamar blue assay; assay type: cell-based; details: Homo sapiens, JIMT-1, JIMT-1 (HER2), 5 days, single dose on day 1
Source text: as §3

[17] = test system: MDA-MB-231 cells; test: Combination with paclitaxel, monolayer growth (crystal violet); details: MDA-MB-231, 5 days
Procedure: 1×10^3 cells per well were seeded for a final volume of 200 μl per well and plates were incubated for 5 days at 37° C. in a humidified incubator with 5% CO2. Following the incubation period, cell survival was quantified by Alamar blue assay (Life Technologies). Briefly, media from each well was replaced with 100 μl of phosphate buffer saline (PBS, Life Technologies) and cells were incubated with 5% Alamar blue, which incorporates a propriety redox indicator that changes colour in response to metabolic activity, for up to 2 hours. During this period of incubation, the absorbance at 570 nm and 600 nm was measured at various time points, depending on the cell line or sample. Percent survival was calculated by comparing the absorbance ratio of the test well to the control well multiplied by 100%, as indicated in the following formula:
Following, plates were prepared for crystal violet staining. To begin, 100 μl of an 8% formaldehyde (Alfa Aesar) solution diluted in PBS was added to each well and plates were stored at 4° C. overnight. Next, the formaldehyde solution was discarded and the wells were washed with 200 μl ultrapure water per well three times. Following, 50 μl of a 0.5% crystal violet solution (0.5% w/v crystal violet (Alfa Aesar), 25% methanol (VWR)) was added to each well and incubated at room temperature for 20 minutes. The crystal violet solution was discarded and wells were washed with 200 μl ultrapure water per well three times. Next, 50 μl of a 5% sodium dodecyl sulphate (SDS) (Alfa Aesar) was added to each well and the absorbance at 590 nm was measured.

[18] = test system: CD34+ cells; test: Colony forming unit hematopoietic stem cell assay; assay type: cell-based, human

Question: `C[C@@H]1CNC(=O)c2cc3ccc(C(=O)Nc4cnn(Cc5ccc(N)cc5)c4)nc3n21` [Compound 18, (R)—N-(1-(4-aminobenzyl)-1H-pyrazol-4-yl)-9-methyl-6-oxo-6,7,8,9-tetrahydropyrido[3′,2′:4,5]pyrrolo[1,2-a]pyrazine-2-carboxamide] was tested. Which “CD274 (gene encoding PD-L1) levels” value [1] did it give?
Answer: reduced levels of CD274

Question: What about the “HLA-DRA mRNA” value [1] of the same compound?
Answer: elevated levels of HLA-DRA mRNA

Question: What about the “mRNA expression of CIITA” value [1] of the same compound?
Answer: little effect

Question: What about the “HLA-DRA mRNA” value [2] of the same compound?
Answer: elevated levels of HLA-DRA mRNA

Question: And the “mRNA expression of CIITA” value [2]?
Answer: little effect

Question: And the “CD274 (gene encoding PD-L1) levels” value ([2]; 1-20 uM)?
Answer: inhibited CD274

Question: What about the IC50 [3] of the same compound?
Answer: 0.02 µM

Question: And the IC50 [4]?
Answer: 2.3 ± 0.9 µM

Question: What about the IC50 [5] of the same compound?
Answer: 7.7 ± 3.5 µM

Question: What about the IC50 [6] of the same compound?
Answer: 2.2 ± 0.8 µM

Question: What about the IC50 [7] of the same compound?
Answer: 11.1 ± 0.5 µM

Question: And the IC50 [8]?
Answer: 0.1 µM

Question: And the IC50 [9]?
Answer: 2.4 ± 0.8 µM

Question: What about the IC50 [10] of the same compound?
Answer: 5.3 ± 1.1 µM

Question: What about the IC50 [11] of the same compound?
Answer: 2.4 ± 0.7 µM

Question: And the “Loss of P-YB-1” value ([12]; MDA-MB-231 cells, 0.01, 0.1, 1, or 10 uM, 24 hrs)?
Answer: dose dependent loss of P-YB-1

Question: What about the “Loss of P-YB-1” value ([12]; MDA-MB-231 cells, 0.01-1 uM, 96 hrs) of the same compound?
Answer: dose dependent loss of P-YB-1

Question: What about the IC50 [13] of the same compound?
Answer: 5.3 ± 2.5 µM

Question: What about the IC50 [14] of the same compound?
Answer: 5.5 ± 0.5 µM

Question: What about the IC50 [15] of the same compound?
Answer: 9.2 ± 1.1 µM

Question: And the IC50 [16]?
Answer: 13.1 ± 6.4 µM

Question: What about the “Coefficient of Drug Interaction (CDI)” value ([17]; Compound 18 0.2 μM with paclitaxel (0.3 nM)) of the same compound?
Answer: 1.6

Question: And the “Coefficient of Drug Interaction (CDI)” value ([17]; Compound 18 0.4 μM with paclitaxel (0.3 nM))?
Answer: 1.2

Question: What about the “Coefficient of Drug Interaction (CDI)” value ([17]; Compound 18 0.8 μM with paclitaxel (0.3 nM), considered synergistic) of the same compound?
Answer: 0.8*

Question: And the “Coefficient of Drug Interaction (CDI)” value ([17]; Compound 18 1.6 μM with paclitaxel (0.3 nM), considered synergistic)?
Answer: 0.4*

Question: And the “Coefficient of Drug Interaction (CDI)” value ([17]; Compound 18 3.1 μM with paclitaxel (0.3 nM), considered synergistic)?
Answer: 0.2*

Question: And the “Coefficient of Drug Interaction (CDI)” value ([17]; Compound 18 […] with paclitaxel (0.3 nM), considered synergistic)?
Answer: 0.4*

Question: What about the IC50 ([18]; Homo sapiens, Hematopoietic stem cell, CD34+ cells from peripheral blood, read-out: CD34+ (PB) IC50) of the same compound?
Answer: 16.3 µM

Question: What about the “Therapeutic Window” value ([18]; ratio IC50 against CD34+ cells and MDA-MB-231 cells (SA)) of the same compound?
Answer: 163X
